Experiments:
[1] = system: I2 (antagonist radioligand); assay: Receptor protein binding studies, I2
Text: (§1) The four 3,11b trans-dihydrotetrabenazine isomers (+)-α, (−)-α, (+)-β and (−)-β were subjected to specific binding assays to test their ability to bind to the receptors and transporter proteins described below. The results are set out in Table 1

[2] = target: T1, alpha 2A (h) (antagonist radioligand) (Homo sapiens, UniProt P08913); assay: Receptor protein binding studies, alpha 2A
T1 sequence (P08913 1-465): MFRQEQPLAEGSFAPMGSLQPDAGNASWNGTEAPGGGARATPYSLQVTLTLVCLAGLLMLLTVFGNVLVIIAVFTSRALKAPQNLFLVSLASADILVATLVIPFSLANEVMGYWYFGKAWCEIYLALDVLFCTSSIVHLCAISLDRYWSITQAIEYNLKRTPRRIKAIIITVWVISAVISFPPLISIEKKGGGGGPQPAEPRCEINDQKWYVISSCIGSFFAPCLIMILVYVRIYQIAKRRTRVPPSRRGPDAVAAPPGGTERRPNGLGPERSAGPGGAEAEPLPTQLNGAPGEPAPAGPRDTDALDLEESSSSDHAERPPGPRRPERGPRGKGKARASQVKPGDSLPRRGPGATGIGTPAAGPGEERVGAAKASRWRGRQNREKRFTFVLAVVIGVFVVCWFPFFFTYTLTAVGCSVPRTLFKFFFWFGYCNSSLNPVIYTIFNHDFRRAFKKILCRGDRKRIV
Text: as §1

[3] = target: T2, 5-HT1A(h) (agonist radioligand) (Homo sapiens, UniProt P08908); assay: Receptor protein binding studies, 5-HT1A
T2 sequence (P08908 1-422): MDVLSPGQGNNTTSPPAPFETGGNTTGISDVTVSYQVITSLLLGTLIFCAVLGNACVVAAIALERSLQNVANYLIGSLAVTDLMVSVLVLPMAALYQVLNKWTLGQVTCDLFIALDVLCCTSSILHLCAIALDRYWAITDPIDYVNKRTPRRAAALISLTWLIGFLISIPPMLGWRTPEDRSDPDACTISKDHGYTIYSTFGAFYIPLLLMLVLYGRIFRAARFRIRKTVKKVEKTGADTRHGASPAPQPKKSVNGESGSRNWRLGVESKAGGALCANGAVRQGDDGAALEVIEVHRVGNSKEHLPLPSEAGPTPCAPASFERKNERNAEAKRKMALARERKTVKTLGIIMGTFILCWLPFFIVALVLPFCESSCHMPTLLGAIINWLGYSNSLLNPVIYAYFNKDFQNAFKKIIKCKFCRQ
Text: as §1

[4] = target: T3, alpha 2C (h) (antagonist radioligand) (Homo sapiens, UniProt P18825); assay: Receptor protein binding studies, alpha 2C
T3 sequence (P18825 1-462): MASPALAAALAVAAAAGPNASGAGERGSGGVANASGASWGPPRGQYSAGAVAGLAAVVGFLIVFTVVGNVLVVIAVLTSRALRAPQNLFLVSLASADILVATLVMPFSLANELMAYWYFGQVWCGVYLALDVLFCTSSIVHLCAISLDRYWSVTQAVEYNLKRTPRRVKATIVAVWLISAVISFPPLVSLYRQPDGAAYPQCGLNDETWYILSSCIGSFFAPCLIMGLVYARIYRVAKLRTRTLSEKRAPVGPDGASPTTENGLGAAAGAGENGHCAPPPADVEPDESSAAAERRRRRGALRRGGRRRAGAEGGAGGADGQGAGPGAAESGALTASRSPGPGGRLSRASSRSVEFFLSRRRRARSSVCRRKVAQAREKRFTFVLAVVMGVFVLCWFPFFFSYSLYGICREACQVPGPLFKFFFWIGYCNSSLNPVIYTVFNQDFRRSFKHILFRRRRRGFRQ
Text: as §1

[5] = target: hERG (membrane preparation) (antagonist radioligand) (Homo sapiens, UniProt Q12809); assay: Receptor protein binding studies, hERG
hERG (membrane preparation) (antagonist radioligand), sequence (Q12809 whole entry): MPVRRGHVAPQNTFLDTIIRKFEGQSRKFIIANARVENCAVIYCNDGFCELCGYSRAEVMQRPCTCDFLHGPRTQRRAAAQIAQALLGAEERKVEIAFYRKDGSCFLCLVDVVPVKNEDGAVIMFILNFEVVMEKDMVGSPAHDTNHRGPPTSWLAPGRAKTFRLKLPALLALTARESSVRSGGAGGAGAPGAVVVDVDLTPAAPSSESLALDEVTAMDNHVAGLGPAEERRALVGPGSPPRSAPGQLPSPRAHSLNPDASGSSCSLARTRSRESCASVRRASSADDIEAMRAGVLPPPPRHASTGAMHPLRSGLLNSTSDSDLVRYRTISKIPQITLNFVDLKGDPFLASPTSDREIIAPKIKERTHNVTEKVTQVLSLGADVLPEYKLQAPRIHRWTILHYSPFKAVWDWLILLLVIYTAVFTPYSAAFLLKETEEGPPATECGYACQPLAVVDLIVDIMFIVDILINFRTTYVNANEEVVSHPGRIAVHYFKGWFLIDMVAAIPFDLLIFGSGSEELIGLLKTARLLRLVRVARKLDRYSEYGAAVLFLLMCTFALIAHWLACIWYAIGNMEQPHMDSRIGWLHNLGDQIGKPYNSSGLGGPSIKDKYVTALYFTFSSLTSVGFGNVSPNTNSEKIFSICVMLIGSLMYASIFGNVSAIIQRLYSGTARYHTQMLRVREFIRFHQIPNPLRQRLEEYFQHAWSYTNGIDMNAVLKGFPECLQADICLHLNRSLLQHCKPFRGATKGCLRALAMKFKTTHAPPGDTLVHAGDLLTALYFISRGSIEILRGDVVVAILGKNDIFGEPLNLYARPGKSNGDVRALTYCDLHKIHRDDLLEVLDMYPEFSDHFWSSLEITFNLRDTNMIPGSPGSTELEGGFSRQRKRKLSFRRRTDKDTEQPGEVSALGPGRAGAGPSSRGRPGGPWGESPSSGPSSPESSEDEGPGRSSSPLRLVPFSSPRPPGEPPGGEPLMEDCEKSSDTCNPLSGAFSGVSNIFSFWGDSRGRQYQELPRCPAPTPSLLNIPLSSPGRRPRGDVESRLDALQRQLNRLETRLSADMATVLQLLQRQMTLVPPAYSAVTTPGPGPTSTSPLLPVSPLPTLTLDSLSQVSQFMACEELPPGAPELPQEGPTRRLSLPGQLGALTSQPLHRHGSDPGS
Text: as §1

[6] = target: 5-HT2B (h) (agonist radioligand) (Homo sapiens, UniProt P41595); assay: Receptor protein binding studies, 5-HT2B
5-HT2B (h) (agonist radioligand), sequence (P41595 whole entry): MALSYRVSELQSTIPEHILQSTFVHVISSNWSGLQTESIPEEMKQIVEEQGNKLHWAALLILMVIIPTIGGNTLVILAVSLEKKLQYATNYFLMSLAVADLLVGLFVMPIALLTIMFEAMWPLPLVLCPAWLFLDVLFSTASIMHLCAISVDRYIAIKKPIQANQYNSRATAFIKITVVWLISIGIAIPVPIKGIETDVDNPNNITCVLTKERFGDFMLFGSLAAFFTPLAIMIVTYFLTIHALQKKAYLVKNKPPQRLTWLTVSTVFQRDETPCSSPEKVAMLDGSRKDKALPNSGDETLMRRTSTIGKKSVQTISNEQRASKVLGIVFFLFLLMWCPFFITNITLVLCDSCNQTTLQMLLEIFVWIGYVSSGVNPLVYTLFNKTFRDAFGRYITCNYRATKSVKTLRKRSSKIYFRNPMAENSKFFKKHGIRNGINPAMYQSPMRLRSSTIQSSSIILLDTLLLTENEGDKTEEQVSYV
Text: as §1

[7] = target: T4, D4.4 (h) (antagonist radioligand) (Homo sapiens, UniProt P21917); assay: Receptor protein binding studies, D4.4; conditions: read-out: % Inhibition of specific binding
T4 sequence (P21917 1-419): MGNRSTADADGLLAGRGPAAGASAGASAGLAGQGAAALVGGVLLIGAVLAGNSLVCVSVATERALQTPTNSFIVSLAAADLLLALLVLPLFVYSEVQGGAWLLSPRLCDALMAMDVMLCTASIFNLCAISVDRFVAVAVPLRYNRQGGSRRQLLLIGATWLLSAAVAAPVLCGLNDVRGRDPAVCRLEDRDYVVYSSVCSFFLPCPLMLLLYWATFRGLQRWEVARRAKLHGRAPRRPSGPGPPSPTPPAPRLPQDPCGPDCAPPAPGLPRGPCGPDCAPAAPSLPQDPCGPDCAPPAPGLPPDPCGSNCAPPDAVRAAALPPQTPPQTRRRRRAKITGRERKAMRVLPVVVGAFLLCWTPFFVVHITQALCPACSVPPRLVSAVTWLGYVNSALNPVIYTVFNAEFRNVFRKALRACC
Text: as §1

With `COc1cc2c(cc1OC)[C@@H]1C[C@@H](O)[C@@H](CC(C)C)CN1CC2` [(−)-Beta, (2S,3R,11bR)-3-isobutyl-9,10-dimethoxy-1,3,4,6,7,11b-hexahydro-2H-pyrido[2,1,a]isoquinolin-2-ol] the “% Inhibition of specific binding” value ([1]; CONC 1.0E−05 (unit not given)) was 37%, the “% Inhibition of specific binding” value ([1]; CONC 1.0E−06 (unit not given)) was 11% and the “activity at the alpha 2A receptor (in words)” value [2] was “potent antagonists”. For the same molecule, the “activity at the 5-HT 1A receptor (in words)” value [3] was “potent agonists”, the “activity at the alpha 2C receptor (in words)” value [4] was “potent antagonists” and the “% Inhibition of specific binding” value ([5]; CONC 1.0E−05 (unit not given)) was 64%. For the same molecule, the “% Inhibition of specific binding” value ([5]; CONC 1.0E−06 (unit not given)) was −1%, the “activity at the 5-HT 2B receptor (in words)” value [6] was “potent agonists” and the inhibition at 10 µM ([7]; CONC 1.0E−05 (unit inferred), 10 μM) was 99%. It also gave an inhibition at 1 µM ([7]; CONC 1.0E−06 (unit inferred), 1 μM) of 87%.

— US11065232B2, “Dihydrotetrabenazine for the treatment of anxiety and psychoses” (ADEPTIO PHARMACEUTICALS LIMITED, priority 2017, dated 2021)
